Data taken from PubChem BioAssay (NCI).
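Dose response: 5 concentrations. Exposure: 48 h. Format: 96-well plates. Endpoint: linear interpolation; highest concentration if not reached. At the TGI there is no net growth.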

Legend:
Test in all cases: inhibition of tumour cell growth, NCI panel, 48 h
A549 NSCLC = tested on: A549 NSCLC
CCRF-CEM leukemia = tested on: CCRF-CEM leukemia
DU-145 prostate = tested on: DU-145 prostate
HCT-116 colon = tested on: HCT-116 colon
OVCAR-4 ovarian = tested on: OVCAR-4 ovarian
OVCAR-5 ovarian = tested on: OVCAR-5 ovarian
RPMI-8226 leukemia = tested on: RPMI-8226 leukemia
SK-MEL-28 melanoma = tested on: SK-MEL-28 melanoma
SK-OV-3 ovarian = tested on: SK-OV-3 ovarian
SW-620 colon = tested on: SW-620 colon

Row | SMILES | TGI (A549 NSCLC) [µM] | TGI (CCRF-CEM leukemia) [µM] | TGI (DU-145 prostate) [µM] | TGI (HCT-116 colon) [µM] | TGI (OVCAR-4 ovarian) [µM] | TGI (OVCAR-5 ovarian) [µM] | TGI (RPMI-8226 leukemia) [µM] | TGI (SK-MEL-28 melanoma) [µM] | TGI (SK-OV-3 ovarian) [µM] | TGI (SW-620 colon) [µM]
1 | COc1cc(/C=C2\C[C@H]3[C@@H]4CC=C5C[C@@H](N6CCCC6)CC[C@]5(C)[C@H]4CC[C@]3(C)[C@H]2O)cc(OC)c1OC | 33.1 | > 100 | 32.1 | 27.6 | 51.1 | 24.4 | 27 | 35 | 35.9 | > 61.4
2 | CCOC(=O)C1=CN=C2C(=O)N(c3ccccc3)N(C)C2(C)C1=N (stereo not given) | > 100 | > 100 | > 100 | > 100 | > 100 | > 100 | > 100 | > 100 | > 100 | > 100
3 | COCn1c(C)c(C)c2c(=O)oc(=O)[nH]c21 | > 100 | > 100 | > 100 | > 100 | > 100 | > 100 | > 100 | > 100 | > 100 | > 100
4 | C=CCNC1=C2C[C@@H](C)C[C@@H](OC)C(OC(=O)CCCN(C)C)[C@H](C)/C=C(\C)[C@@H](OC(N)=O)[C@H](OC)/C=C\C=C(/C)C(=O)NC(=CC1=O)C2=O (stereo not given in full) | 14.6 | 31.3 | 18.1 | 20.4 | 26.3 | 28.5 | 44.3 | 27.4 | 12.6 | 16.9
5 | Cc1c(-c2ccccc2)c(C#N)c2nnn(-c3ccccc3)c(=O)n12 | > 100 | > 100 | > 100 | > 100 | > 100 | > 100 | > 100 | > 100 | > 100 | > 100
6 | CC(C)CC(=O)NC(Nc1ccc(S(=O)(=O)Nc2ncccn2)cc1)(C(F)(F)F)C(F)(F)F | > 100 | > 100 | > 100 | > 100 | > 100 | > 100 | > 100 | > 100 | > 100 | > 100
7 | Cc1cc(NS(=O)(=O)c2ccc(NC(=O)c3ccc4nc5ccccc5c(Nc5ccc(S(=O)(=O)N=C(N)N)cc5)c4c3)cc2)no1 | 31.4 | 34.3 | 32.3 | 35.6 | 31.4 | 31.8 | 71.9 | 35 | 41.6 | 48.5
8 | Nn1c(Cc2ccc(Cl)cc2)n[nH]c1=O | > 100 | > 100 | > 100 | > 100 | > 100 | > 100 | > 100 | > 100 | > 100 | > 100
9 | Cc1ccccc1N=C(N)NC#N | > 100 | > 100 | > 100 | > 100 | > 100 | > 100 | > 100 | > 100 | > 100 | > 100
10 | CC(=O)N1N=C(c2c(O)ccc3ccccc23)CC1C(=O)c1ccco1 (stereo not given) | > 100 | 57 | > 100 | 50.3 | > 100 | > 100 | 57.2 | > 100 | > 100 | > 100
11 | Cc1nc2c(cc1C(=O)NN)c(=O)n(C)c(=O)n2C | > 100 | > 100 | > 100 | > 100 | > 100 | > 100 | > 100 | > 100 | > 100 | > 100
12 | CSC1=Nc2ccccc2-c2nc(-c3ccccc3)cc(-c3ccccc3)c2C1 | > 100 | > 100 | > 100 | 30.7 | > 100 | > 100 | > 100 | > 100 | 30.6 | > 100
13 | Oc1nc(N/N=C/c2c[nH]c3ccccc23)[nH]c1/C=C1\C=Nc2ccccc21 | 42.3 | 25.3 | > 100 | 36.7 | 86.1 | > 100 | 25.5 | 54.1 | > 100 | 35.8
14 | C/C(O)=C/c1nc2ccccc2nc1/C=C(/C)O | 51.3 | 45.9 | 70.4 | 39.3 | 48.5 | 79.9 | 56.5 | > 100 | > 100 | > 100
15 | Cc1cccc2c1C(=O)C1(Cc3ccccc3C1=O)C2 (stereo not given) | > 100 | > 100 | > 100 | > 100 | > 100 | > 100 | > 100 | > 100 | > 100 | > 100
